Here are results for 16 compounds from patent US20230365537A1, “POLO LIKE KINASE 4 INHIBITORS” (ORIC Pharmaceuticals, Inc., priority 2021, published 2023).

pIC50: −log10 of the molar value.

Assay [1] concerns the target human recombinant Aurora A (Homo sapiens (Human), UniProt O14965). The experiment in a line: Aurora A Kinase Biochemical Assay (ADP-Glo). As to conditions: ratio of Aurora A IC50 to PLK4 IC50 (selectivity). For orientation: ADP-Glo first removes unused ATP, then detects ADP through luciferase.
In a further assay the target is human recombinant PLK4 (Homo sapiens (Human), UniProt O00444). As to the kind of experiment: PLK4 Biochemical Assay (ADP-Glo). As to conditions: 0.5 nM PLK4, 8.0 µM ATP, 4.7 µM MBP, 6 hours at RT. The method in brief:
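Luminescent ADP-Glo detection quantified ADP production, with ATP depletion for 40 min and detection for 30 min at room temperature. Compound and PLK4 (1.0 nM stock addition) were preincubated 15 min in HEPES pH 7.5 buffer containing MgCl2, EGTA, DTT, Brij-35 and BSA. IC50 values were obtained by four-parameter nonlinear regression.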

In assay [2] the target is human recombinant Aurora B (Homo sapiens (Human), UniProt Q96GD4). The experiment in a line: Aurora B Kinase Biochemical Assay (ADP-Glo). As to conditions: ratio of Aurora B IC50 to PLK4 IC50 (selectivity). Put shortly: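 IC50 derived by four-parameter nonlinear fit of ADP-Glo luminescence (ADP produced). Compound was preincubated 15 min at RT with 20 nM recombinant human Aurora B, in 50 mM HEPES pH 7.5, 10 mM MgCl2, 1 mM EGTA, 1 mM DTT, 0.01% Brij-35/BSA.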
Sequence of human recombinant Aurora B (Q96GD4 whole entry): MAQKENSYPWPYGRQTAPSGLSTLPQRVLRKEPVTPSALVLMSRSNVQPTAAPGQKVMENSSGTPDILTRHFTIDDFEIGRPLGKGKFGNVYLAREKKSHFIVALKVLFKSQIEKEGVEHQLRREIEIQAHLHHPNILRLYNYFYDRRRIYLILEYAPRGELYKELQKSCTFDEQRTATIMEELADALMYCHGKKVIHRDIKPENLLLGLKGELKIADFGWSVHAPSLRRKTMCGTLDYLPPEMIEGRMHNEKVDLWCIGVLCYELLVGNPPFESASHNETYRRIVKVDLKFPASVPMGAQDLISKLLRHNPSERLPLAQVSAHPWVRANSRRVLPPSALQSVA

The subject of a further assay is CHP-134 cells. The experiment in a line: CHP134 CellTiter-Glo (CTG) Assay. The assay is classed as cell-based. The following applies: Homo sapiens, CHP-134, 120 h, 5 days, viable cells by CellTiter-Glo. Put shortly:
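Nine-point 1:3 dilution series, diluted into growth media, added in quadruplicate to CHP-134 cells plated 16 h earlier at 200 cells/well.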
A general note: Cellular ATP, detected with luciferase, serves as a proxy for viable cell number.

Sequence of human recombinant Aurora A (O14965 whole entry): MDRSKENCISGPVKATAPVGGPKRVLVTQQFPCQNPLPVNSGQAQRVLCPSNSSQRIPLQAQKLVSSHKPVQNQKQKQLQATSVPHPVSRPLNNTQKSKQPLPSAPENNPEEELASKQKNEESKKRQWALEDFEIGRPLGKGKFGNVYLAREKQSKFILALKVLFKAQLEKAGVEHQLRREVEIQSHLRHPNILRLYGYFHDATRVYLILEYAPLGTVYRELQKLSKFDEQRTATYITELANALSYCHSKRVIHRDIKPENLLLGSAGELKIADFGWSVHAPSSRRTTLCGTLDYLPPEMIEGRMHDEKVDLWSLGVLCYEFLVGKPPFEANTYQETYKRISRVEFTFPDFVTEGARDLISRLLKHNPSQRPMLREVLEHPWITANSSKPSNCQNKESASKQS
Sequence of human recombinant PLK4 (O00444 whole entry): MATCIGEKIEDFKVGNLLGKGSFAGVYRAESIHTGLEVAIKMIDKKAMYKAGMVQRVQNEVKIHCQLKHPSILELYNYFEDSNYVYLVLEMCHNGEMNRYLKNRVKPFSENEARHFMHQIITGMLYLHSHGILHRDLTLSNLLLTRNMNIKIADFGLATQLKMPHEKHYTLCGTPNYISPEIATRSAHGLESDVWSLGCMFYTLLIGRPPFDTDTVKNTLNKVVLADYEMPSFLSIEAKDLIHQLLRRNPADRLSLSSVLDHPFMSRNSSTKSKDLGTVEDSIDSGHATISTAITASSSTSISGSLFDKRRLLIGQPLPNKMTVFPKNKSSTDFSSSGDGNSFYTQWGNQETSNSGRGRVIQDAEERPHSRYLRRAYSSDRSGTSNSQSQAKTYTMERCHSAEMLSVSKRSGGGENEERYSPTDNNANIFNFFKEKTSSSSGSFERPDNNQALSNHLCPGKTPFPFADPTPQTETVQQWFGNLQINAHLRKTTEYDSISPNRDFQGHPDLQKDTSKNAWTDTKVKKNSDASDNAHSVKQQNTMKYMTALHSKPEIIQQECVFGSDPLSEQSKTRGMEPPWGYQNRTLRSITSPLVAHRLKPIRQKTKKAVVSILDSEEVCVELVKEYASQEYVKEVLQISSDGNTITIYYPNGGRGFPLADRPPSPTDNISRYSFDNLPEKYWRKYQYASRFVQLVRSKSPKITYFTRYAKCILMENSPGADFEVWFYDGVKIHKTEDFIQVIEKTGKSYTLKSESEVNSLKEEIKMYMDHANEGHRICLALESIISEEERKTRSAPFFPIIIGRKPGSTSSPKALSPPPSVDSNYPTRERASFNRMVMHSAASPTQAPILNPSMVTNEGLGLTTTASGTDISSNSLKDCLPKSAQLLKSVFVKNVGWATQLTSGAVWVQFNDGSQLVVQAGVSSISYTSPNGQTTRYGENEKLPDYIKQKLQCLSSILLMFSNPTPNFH

One may read the pIC50 as −log10 of the IC50, conventionally taken in molar units. Take `CCOc1nc(C(=O)N(C)C)ccc1Nc1n[nH]c2cc([C@@H]3C[C@@]34C(=O)Nc3ccc(OC)cc34)ccc12` [Example 214, 6-ethoxy-5-({6-[(1R,2S)-5′-methoxy-2′-oxo-1′,2′-dihydrospiro[cyclopropane-1,3′-indol]-1-yl]-1H-indazol-3-yl}amino)-N,N-dimethylpyridine-2-carboxamide]: in assay [1], the “[Aurora A IC50 (nM)]/[PLK4 IC50 (nM)]” value amounted to 953. Also, the pIC50 at human recombinant PLK4 is 9.00; in the assay with CHP-134 cells it was 7.49. Besides, the “[Aurora B IC50 (nM)]/[PLK4 IC50 (nM)]” value in assay [2] is recorded as 59.0999.
Turning to `COc1ccc2c(c1)[C@]1(C[C@H]1c1ccc3c(Nc4ccc(N5CCCC5=O)nc4OC)n[nH]c3c1)C(=O)N2` [Example 215, (1R,2S)-5′-methoxy-2-(3-{[2-methoxy-6-(2-oxopyrrolidin-1-yl)pyridin-3-yl]amino}-1H-indazol-6-yl)spiro[cyclopropane-1,3′-indol]-2′(1′H)-one], in assay [1], the “[Aurora A IC50 (nM)]/[PLK4 IC50 (nM)]” value stood at 986.6539. The figures for the negative logarithm of the IC50 (pIC50) at human recombinant PLK4 and with CHP-134 cells were 8.68 and 6.72, respectively. Besides, in assay [2], the “[Aurora B IC50 (nM)]/[PLK4 IC50 (nM)]” value turned out to be 53.57.
For `COc1ccc2c(c1)[C@]1(C[C@H]1c1ccc3c(Nc4cc(S(=O)(=O)N5CCOCC5)ccc4OC)n[nH]c3c1)C(=O)N2` [Example 216, (1R,2S)-5′-methoxy-2-{3-[2-methoxy-5-(morpholine-4-sulfonyl)anilino]-1H-indazol-6-yl}spiro[cyclopropane-1,3′-indol]-2′(1′H)-one] the same measures were 7712, 8.57, 6.12 and 18601.19048.
On the same counts, the results for `COc1ccc2c(c1)[C@]1(C[C@H]1c1ccc3c(Nc4nc5cccnc5cc4OC)n[nH]c3c1)C(=O)N2` [Example 217, (1R,2S)-5′-methoxy-2-{3-[(3-methoxy-1,5-naphthyridin-2-yl)amino]-1H-indazol-6-yl}spiro[cyclopropane-1,3′-indol]-2′(1′H)-one] are 416.7367, 8.92, 6.35 and 170.9840.
As for `COc1ccc2c(c1)[C@]1(C[C@H]1c1ccc3c(Nc4ccc(C(=O)N(C)OC)nc4OC)n[nH]c3c1)C(=O)N2` [Example 218, N,6-dimethoxy-5-({6-[(1R,2S)-5′-methoxy-2′-oxo-1′,2′-dihydrospiro[cyclopropane-1,3′-indol]-2-yl]-1H-indazol-3-yl}amino)-N-methylpyridine-2-carboxamide], the “[Aurora A IC50 (nM)]/[PLK4 IC50 (nM)]” value in assay [1] stood at 806.5968. The figures for the pIC50 on human recombinant PLK4 and in the assay with CHP-134 cells were 9.02 and 7.13, respectively. For the same compound, the “[Aurora B IC50 (nM)]/[PLK4 IC50 (nM)]” value in assay [2] turned out to be 70.8586.
In the case of `COc1ccc2c(c1)[C@]1(C[C@H]1c1ccc3c(Nc4ccc(C(=O)NNC(C)C)nc4OC)n[nH]c3c1)C(=O)N2` [Example 219, 6-methoxy-5-({6-[(1R,2S)-5′-methoxy-2′-oxo-1′,2′-dihydrospiro[cyclopropane-1,3′-indol]-2-yl]-1H-indazol-3-yl}amino)-N′-(propan-2-yl)pyridine-2-carbohydrazide], in assay [1], the “[Aurora A IC50 (nM)]/[PLK4 IC50 (nM)]” value stood at 763.5782. The pIC50 at human recombinant PLK4 is 8.60; in the assay with CHP-134 cells, 6.29. Also, the “[Aurora B IC50 (nM)]/[PLK4 IC50 (nM)]” value in assay [2] worked out at 64.2571.
For `COc1ccc2c(c1)[C@]1(C[C@H]1c1ccc3c(Nc4ccc(S(=O)(=O)N(C)C)nc4OC)n[nH]c3c1)C(=O)N2` [Example 222, 6-methoxy-5-({6-[(1R,2S)-5′-methoxy-2′-oxo-1′,2′-dihydrospiro[cyclopropane-1,3′-indol]-2-yl]-1H-indazol-3-yl}amino)-N,N-dimethylpyridine-2-sulfonamide] the same measures were 446.1368, 8.87, 6.34 and 546.4311.
On the same counts, the results for `CCOc1nc(S(=O)(=O)N(C)C)ccc1Nc1n[nH]c2cc([C@@H]3C[C@@]34C(=O)Nc3ccc(OC)cc34)ccc12` [Example 223, 6-ethoxy-5-({6-[(1R,2S)-5′-methoxy-2′-oxo-1′,2′-dihydrospiro[cyclopropane-1,3′-indol]-2-yl]-1H-indazol-3-yl}amino)-N,N-dimethylpyridine-2-sulfonamide] are 1004.7743, 8.64, 6.79 and 445.3125.
Consider `COc1ccc2c(c1)[C@]1(C[C@H]1c1ccc3c(Nc4cc(C(C)(C)O)cnc4OC)n[nH]c3c1)C(=O)N2` [Example 226, (1R,2S)-2-(3-{[5-(2-hydroxypropan-2-yl)-2-melhoxypyridin-3-yl]amino}-1H-indazol-6-yl)-5′-methoxyspiro[cyclopropane-1,3′-indol]-2′(1′H)-one], for which, in assay [1], the “[Aurora A IC50 (nM)]/[PLK4 IC50 (nM)]” value was 2759.6376. Moreover, the negative-log IC50 (pIC50) at human recombinant PLK4 is 8.32; in the assay with CHP-134 cells, 5.67. Besides, the “[Aurora B IC50 (nM)]/[PLK4 IC50 (nM)]” value in assay [2] came to 474.6155.
For `CCS(=O)(=O)c1cnc(Nc2n[nH]c3cc([C@@H]4C[C@@]45C(=O)Nc4ccc(OC)cc45)ccc23)c(OC)c1` [Example 228, (1R,2S)-2-(3-{[5-(Ethanesulfonyl)-3-methoxypyridin-2-yl]amino}-1H-indazol-6-yl)-5′-methoxyspiro[cyclopropane-1,3′-indol]-2′(1′H)-one] the same measures were 813.6599, 8.87, 6.74 and 340.4602.
As for `COc1ccc2c(c1)[C@]1(C[C@H]1c1ccc3c(Nc4ccc(C(=O)NCC5CC5)nc4OC)n[nH]c3c1)C(=O)N2` [Example 230, N-(cyclopropylmethyl)-6-methoxy-5-({6-[(1R,2S)-5′-methoxy-2′-oxo-1′,2′-dihydrospiro[cyclopropane-1,3′-indol]-2-yl]-1H-indazol-3-yl}amino)pyridine-2-carboxamide], in assay [1], the “[Aurora A IC50 (nM)]/[PLK4 IC50 (nM)]” value amounted to 12432.2103. The values for the pIC50 at human recombinant PLK4 and with CHP-134 cells were 8.61 and 6.40, respectively. Also, the “[Aurora B IC50 (nM)]/[PLK4 IC50 (nM)]” value in assay [2] is 213.4346.
On to `COc1ccc2c(c1)[C@]1(C[C@H]1c1ccc3c(Nc4ccc(C(=O)NC(C)C)nc4OC)n[nH]c3c1)C(=O)N2` [Example 231, 6-methoxy-5-({6-[(1R,2S)-5′-methoxy-2′-oxo-1′,2′-dihydrospiro[cyclopropane-1,3′-indol]-2-yl]-1H-indazol-3-yl}amino)-N-(propan-2-yl)pyridine-2-carboxamide], for which the “[Aurora A IC50 (nM)]/[PLK4 IC50 (nM)]” value in assay [1] is on record as 4955.7692. Further, the pIC50 is 8.81 on human recombinant PLK4 and 6.40 with CHP-134 cells. Moreover, the “[Aurora B IC50 (nM)]/[PLK4 IC50 (nM)]” value in assay [2] is 316.7307.
For `COc1ccc2c(c1)[C@]1(C[C@H]1c1ccc3c(Nc4ccc(C(=O)N5C6CCC5COC6)nc4OC)n[nH]c3c1)C(=O)N2` [Example 232, (1R,2S)-5′-methoxy-2-(3-{[2-methoxy-6-(3-oxa-8-azabicyclo[3.2.1]octane-8-carbonyl)pyridin-3-yl]amino}-1H-indazol-6-yl)spiro[cyclopropane-1,3′-indol]-2′(1′H)-one] the same measures were 651.7909, 8.99, 6.85 and 105.5179.
Turning to `COc1ccc2c(c1)[C@]1(C[C@H]1c1ccc3c(Nc4nn(C)c(=O)cc4OC)n[nH]c3c1)C(=O)N2` [Example 233, (1R,2S)-5′-methoxy-2-{3-[(4-methoxy-1-methyl-6-oxo-1,6-dihydropyridazin-3-yl)amino]-1H-indazol-6-yl)spiro[cyclopropane-1,3′-indol]-2′(1′H)-one], in assay [1], the “[Aurora A IC50 (nM)]/[PLK4 IC50 (nM)]” value came to 332.3068. Moreover, the pIC50 is 8.45 at human recombinant PLK4 and 5.32 in the assay with CHP-134 cells. Besides, in assay [2], the “[Aurora B IC50 (nM)]/[PLK4 IC50 (nM)]” value is 107.2788.
For `COc1ccc2c(c1)[C@]1(C[C@H]1c1ccc3c(Nc4cc(-c5ncco5)cnc4OC)n[nH]c3c1)C(=O)N2` [Example 234, (1R,2S)-5′-Methoxy-2-(3-{[2-methoxy-5-(1,3-oxazol-2-yl)pyridin-3-yl]amino}-1H-indazol-6-yl)spiro[cyclopropane-1,3′-indol]-2′(1′H)-one] the same measures were 608.9799, 8.64, 6.56 and 831.7349.
On the same counts, the results for `COc1ccc2c(c1)[C@]1(C[C@H]1c1ccc3c(Nc4cc(C)c(C(=O)N(C)C)nc4OC)n[nH]c3c1)C(=O)N2` [Example 238, 6-methoxy-5-({6-[(1R,2S)-5′-methoxy-2′-oxo-1′,2′-dihydrospiro[cyclopropane-1,3′-indol]-2-yl]-1H-indazol-3-yl}amino)-N,N,3-trimethylpyridine-2-carboxamide] are 536.1, 8.87, 6.87 and 582.2189.
